Source: US20250368649A1, “TETRAHYDROPYRIDOPYRIMIDINE PAN-KRAS INHIBITORS” (Mirati Therapeutics, Inc., priority 2022, published 2025)

Columns and labels:
HCT116 cells = assay: Inhibition of KRas-mediated phosphorylation of ERK (Cisbio HTRF pERK), HCT116 cells; format: cell-based; conditions: Homo sapiens; for inhibition at 0.1 µM: HCT-116, single point at 100 nM, 3 hrs compound incubation; for IC50: HCT-116, 3 h, 3 hr compound incubation
H460 cells = assay: Inhibition of KRas-mediated phosphorylation of ERK (Cisbio HTRF pERK), H460 cells; format: cell-based; conditions: Homo sapiens; for inhibition at 0.1 µM: NCI-H460, single point at 100 nM, 3 hrs compound incubation; for IC50: NCI-H460, 3 h, 3 hr compound incubation
H727 cells = assay: Inhibition of KRas-mediated phosphorylation of ERK (Cisbio HTRF pERK), H727 cells; format: cell-based; conditions: Homo sapiens; for IC50: NCI-H727, 3 h, 3 hr compound incubation
MKN1 cells = assay: Inhibition of KRas-mediated phosphorylation of ERK (Cisbio HTRF pERK), MKN1 cells; format: cell-based; conditions: Homo sapiens
Summary of the method: (§1)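 Seeding density of 6,000 cells per well was used, with cultures kept in RPMI/10% FBS from day 1.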

KRas G12R = KRas G12R (Homo sapiens, UniProt P01116, G12R); assay: biochemical; conditions: Binding to KRas (IC50 nM) G12R, TR-FRET displacement, KRas G12R
H358 cells = assay: Inhibition of KRas-mediated phosphorylation of ERK (Cisbio HTRF pERK), H358 cells; format: cell-based; conditions: Homo sapiens; for inhibition at 0.1 µM: NCI-H358, single point at 100 nM, 3 hrs compound incubation; for IC50: NCI-H358, 3 h, 3 hr compound incubation
KRas G12D = KRas G12D (Homo sapiens, UniProt P01116, G12D); assay: biochemical; conditions: Binding to KRas (IC50 nM) G12D, TR-FRET displacement, KRas G12D
PSN1 cells = assay: Inhibition of KRas-mediated phosphorylation of ERK (Cisbio HTRF pERK), PSN1 cells; format: cell-based; conditions: Homo sapiens, PSN1, 3 h
Summary of the method: as §1

A549 cells = assay: Inhibition of KRas-mediated phosphorylation of ERK (Cisbio HTRF pERK), A549 cells; format: cell-based; conditions: Homo sapiens; for inhibition at 0.1 µM: single point at 100 nM, 3 hrs compound incubation; for IC50: A549, 3 h, 3 hr compound incubation
KRas G12V = KRas G12V (Homo sapiens, UniProt P01116, G12V); assay: biochemical; conditions: Binding to KRas (IC50 nM) G12V, TR-FRET displacement, KRas G12V
ASPC1 cells = assay: Inhibition of KRas-mediated phosphorylation of ERK (Cisbio HTRF pERK), ASPC1 cells; format: cell-based; conditions: Homo sapiens, AsPC-1 cells; for IC50: ASPC1, 3 h, 3 hr compound incubation
[1] = MKN-1, 3 hour compound incubation, Cisbio pERK HTRF
[2] = 3 hour compound incubation, Cisbio pERK HTRF
[3] = MKN-1, 3 hr compound incubation

Chain of KRas G12R (P01116 1-169 isoform P01116-2 G12R): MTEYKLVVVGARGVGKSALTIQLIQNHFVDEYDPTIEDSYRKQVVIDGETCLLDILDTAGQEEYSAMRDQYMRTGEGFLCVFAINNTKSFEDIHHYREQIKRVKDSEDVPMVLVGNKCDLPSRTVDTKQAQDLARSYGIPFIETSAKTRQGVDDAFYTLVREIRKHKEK
Chain of KRas G12D (P01116 1-169 isoform P01116-2 G12D): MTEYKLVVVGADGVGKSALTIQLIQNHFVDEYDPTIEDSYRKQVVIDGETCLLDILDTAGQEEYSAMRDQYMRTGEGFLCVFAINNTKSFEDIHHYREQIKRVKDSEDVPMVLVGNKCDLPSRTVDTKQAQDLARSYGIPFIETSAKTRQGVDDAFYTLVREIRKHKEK
Chain of KRas G12V (P01116 1-169 isoform P01116-2 G12V): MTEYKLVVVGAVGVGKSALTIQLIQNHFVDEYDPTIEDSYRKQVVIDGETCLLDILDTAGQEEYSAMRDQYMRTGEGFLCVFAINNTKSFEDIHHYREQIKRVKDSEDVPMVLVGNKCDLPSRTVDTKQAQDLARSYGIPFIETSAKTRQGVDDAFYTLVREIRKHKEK

| IC50 (H727 cells; Cisbio pERK HTRF) | IC50 (MKN1 cells; [1]) | IC50 (KRas G12R) | IC50 (KRas G12D) | IC50 (PSN1 cells; [2]) | IC50 (KRas G12V) | IC50 (ASPC1 cells; Cisbio pERK HTRF) | IC50 (HCT116 cells; Cisbio pERK HTRF) | IC50 (H460 cells; Cisbio pERK HTRF) | IC50 (H358 cells; Cisbio pERK HTRF) | IC50 (HCT116 cells) | IC50 (H460 cells) | IC50 (H727 cells) | IC50 (MKN1 cells; [3]) | IC50 (H358 cells) | IC50 (PSN1 cells; 3 hr compound incubation) | IC50 (A549 cells) | IC50 (ASPC1 cells) | SMILES | inhibition at 0.1 µM (HCT116 cells) | inhibition at 0.1 µM (H460 cells) | other results |
| --- | --- | --- | --- | --- | --- | --- | --- | --- | --- | --- | --- | --- | --- | --- | --- | --- | --- | --- | --- | --- | --- |
| 210 nM | 41.7 nM | < 2 nM | < 2 nM | > 10000 nM | < 2 nM | 37 nM |  |  |  |  |  |  |  |  |  |  |  | CCc1c(F)ccc2cc(O)cc(N3CCc4c(nc(OC[C@@]56CCCN5C[C@H](F)C6)nc4N4CCCn5nc(C(=O)N6CC7(CCCN7)C6)cc5C4)C3)c12 [Example 277, (5-(7-(8-ethyl-7-fluoro-3-hydroxynaphthalen-1-yl)-2-(((2R,7aS)-2-fluorohexahydro-1H-pyrrolizin-7a-yl)methoxy)-5,6,7,8-tetrahydropyrido[3,4-d]pyrimidin-4-yl)-5,6,7,8-tetrahydro-4H-pyrazolo[1,5-a][1,4]diazepin-2-yl)(2,5-diazaspiro[3.4]octan-2-yl)methanone] | -2% | 12% | inhibition at 0.1 µM (H358 cells): 64%; inhibition at 0.1 µM (A549 cells): 25% |
| 8 nM | 11 nM | < 2 nM | < 2 nM | 3450 nM | < 2 nM | 14 nM | 148 nM | 50 nM | 4 nM |  |  |  |  |  |  |  |  | CCc1c(F)ccc2cc(O)cc(N3CCc4c(nc(OC[C@@]56CCCN5C[C@H](F)C6)nc4N4CCCCn5nc(C(=O)N(C)C6CC6)cc5C4)C3)c12 [Example 592, N-cyclopropyl-5-(7-(8-ethyl-7-fluoro-3-hydroxynaphthalen-1-yl)-2-(((2R,7aS)-2-fluorotetrahydro-1H-pyrrolizin-7a(5H)-yl)methoxy)-5,6,7,8-tetrahydropyrido[3,4-d]pyrimidin-4-yl)-N-methyl-4,5,6,7,8,9-hexahydropyrazolo[1,5-a][1,4] diazocine-2-carboxamide] |  |  | IC50 (A549 cells; Cisbio pERK HTRF): 29 nM |
| 561 nM | 516 nM | 4 nM | < 2 nM | > 10000 nM | 3 nM | 400 nM |  |  |  |  |  |  |  |  |  |  |  | CCc1c(F)ccc2cc(O)cc(N3CCc4c(nc(OC[C@@]56CCCN5C[C@H](F)C6)nc4N4CCCn5nc(CNC(C)=O)cc5C4)C3)c12 [Example 353, N-((5-(7-(8-ethyl-7-fluoro-3-hydroxynaphthalen-1-yl)-2-(((2R,7aS)-2-fluorohexahydro-1H-pyrrolizin-7a-yl)methoxy)-5,6,7,8-tetrahydropyrido[3,4-d]pyrimidin-4-yl)-5,6,7,8-tetrahydro-4H-pyrazolo[1,5-a][1,4]diazepin-2-yl)methyl)acetamide] | 6% | -15% | inhibition at 0.1 µM (H358 cells): -10%; inhibition at 0.1 µM (A549 cells): 26% |
|  |  | 2 nM | 3 nM |  | < 2 nM |  |  |  |  | 144 nM | 41 nM | 4 nM | 34.6 nM | 6 nM | 4640 nM | 15 nM | 7 nM | CCc1c(F)ccc2cc(O)cc(N3CCc4c(nc(OC[C@@]56CCCN5C[C@H](F)C6)nc4N4CCCn5nc(C(=O)N6C[C@@H]7CCC[C@H]6C7)cc5C4)C3)c12 [Example 615, ((1R,5S)-6-azabicyclo[3.2.1]octan-6-yl)(5-(7-(8-ethyl-7-fluoro-3-hydroxynaphthalen-1-yl)-2-(((2R,7aS)-2-fluorotetrahydro-1H-pyrrolizin-7a(5H)-yl)methoxy)-5,6,7,8-tetrahydropyrido[3,4-d]pyrimidin-4-yl)-5,6,7,8-tetrahydro-4H-pyrazolo[1,5-a][1,4]diazepin-2-yl)methanone] |  |  |  |
|  |  | < 2 nM | < 2 nM |  | < 2 nM |  |  |  |  | 1320 nM | 567 nM | 230 nM | 158 nM | 87 nM | > 10000 nM | 609 nM | 134 nM | CCc1c(F)ccc2cc(O)cc(N3CCc4c(nc(OC[C@@]56CCCN5C[C@H](F)C6)nc4N4CCCn5ncc(C(=O)NC)c5C4)C3)c12 [Example 635, 5-(7-(8-ethyl-7-fluoro-3-hydroxynaphthalen-1-yl)-2-(((2R,7aS)-2-fluorotetrahydro-1H-pyrrolizin-7a(5H)-yl)methoxy)-5,6,7,8-tetrahydropyrido[3,4-d]pyrimidin-4-yl)-N-methyl-5,6,7,8-tetrahydro-4H-pyrazolo[1,5-a][1,4]diazepine-3-carboxamide] |  |  |  |
| 5 nM | 9.9 nM | < 2 nM | < 2 nM | 1090 nM | < 2 nM | 10 nM | 298 nM | 81 nM | 4 nM |  |  |  |  |  |  |  |  | CCc1c(F)ccc2cc(O)cc(N3CCc4c(nc(OC[C@@]56CCCN5C[C@H](F)C6)nc4N4CCCCn5nc(C(=O)NC(C)C)c(Cl)c5C4)C3)c12 [Example 506, 3-chloro-5-(7-(8-ethyl-7-fluoro-3-hydroxynaphthalen-1-yl)-2-(((2R,7aS)-2-fluorotetrahydro-1H-pyrrolizin-7a(5H)-yl)methoxy)-5,6,7,8-tetrahydropyrido[3,4-d]pyrimidin-4-yl)-N-isopropyl-4,5,6,7,8,9-hexahydropyrazolo[1,5-a][1,4] diazocine-2-carboxamide] | 34% | 71% | inhibition at 0.1 µM (H727 cells; NCI-H727, single point at 100 nM, 3 hrs compound incubation): 80%; IC50 (A549 cells; Cisbio pERK HTRF): 17 nM; inhibition at 0.1 µM (ASPC1 cells; ASPC1, single point at 100 nM, 3 hrs compound incubation): 97% |
| 191 nM | 19.7 nM | < 2 nM | 3 nM | 6500 nM | < 2 nM | 273 nM | 439 nM | 163 nM | 111 nM |  |  |  |  |  |  |  |  | CCc1c(F)ccc2cc(O)cc(N3CCc4c(nc(OC[C@@]56CCCN5C[C@H](F)C6)nc4N4C[C@@H]5C[C@H](C4)[C@H](O)C5)C3)c12 [Example 585B, (1R,5R,6R)-3-(7-(8-ethyl-7-fluoro-3-hydroxynaphthalen-1-yl)-2-(((2R,7aS)-2-fluorotetrahydro-1H-pyrrolizin-7a(5H)-yl)methoxy)-5,6,7,8-tetrahydropyrido[3,4-d]pyrimidin-4-yl)-3-azabicyclo[3.2.1]octan-6-ol] |  |  | IC50 (A549 cells; Cisbio pERK HTRF): 125 nM |
|  |  | 3 nM | 2 nM |  | < 2 nM |  |  |  |  | 191 nM | 131 nM | 323 nM | 38.7 nM | 72 nM | 2660 nM | 334 nM | 197 nM | C[C@@H]1C[C@@H]1c1c(Cl)cc(O)cc1N1CCc2c(nc(OC[C@@]34CCCN3C[C@H](F)C4)nc2N2CCC[C@]3(CNS(=O)(=O)N3)C2)C1 (stereo in doubt) [Example 654, (R)-7-(7-(3-chloro-5-hydroxy-2-(cis-2-methylcyclopropyl)phenyl)-2-(((2R,7aS)-2-fluorotetrahydro-1H-pyrrolizin-7a(5H)-yl)methoxy)-5,6,7,8-tetrahydropyrido[3,4-d]pyrimidin-4-yl)-2-thia-1,3,7-triazaspiro[4.5]decane 2,2-dioxide] |  |  |  |
|  |  | < 2 nM | 18 nM |  | < 2 nM |  |  |  |  | 516 nM | 165 nM | 84 nM | 23 nM | 45 nM | > 10000 nM | 94 nM | 572 nM | CCc1c(F)ccc2cc(O)cc(N3CCc4c(nc(OC[C@@]56CCCN5C[C@H](F)C6)nc4N4C[C@H]5CC[C@@H](C4)[C@@H]5C#N)C3)c12 [Example 651, (1R,5S,8S)-3-(7-(8-ethyl-7-fluoro-3-hydroxynaphthalen-1-yl)-2-(((2R,7aS)-2-fluorotetrahydro-1H-pyrrolizin-7a(5H)-yl)methoxy)-5,6,7,8-tetrahydropyrido[3,4-d]pyrimidin-4-yl)-3-azabicyclo[3.2.1]octane-8-carbonitrile] |  |  |  |
